Assays:
SH-SY5Y cells = assay: SH-SY5Y neuroblastoma cell toxicity; assay type: cell-based, human; conditions: for neurotoxicity / cytotoxicity on SH-SY5Y cells: 10–100 μM, 48 h incubation, MTT
eeAChE = eeAChE (Electrophorus electricus, UniProt O42275); assay: Cholinesterase inhibition, Ellman's assay; assay type: biochemical, electric eel; conditions: for SI = IC50 of BChE/IC50 of AChE: selectivity index
human MAO-B = molecular target: T1, human MAO-B (Homo sapiens, UniProt P27338); assay: MAO-B inhibition assay; assay type: biochemical; conditions: for SI = IC50 of MAO-A/IC50 of MAO-B: selectivity index
T1 sequence (P27338 1-520): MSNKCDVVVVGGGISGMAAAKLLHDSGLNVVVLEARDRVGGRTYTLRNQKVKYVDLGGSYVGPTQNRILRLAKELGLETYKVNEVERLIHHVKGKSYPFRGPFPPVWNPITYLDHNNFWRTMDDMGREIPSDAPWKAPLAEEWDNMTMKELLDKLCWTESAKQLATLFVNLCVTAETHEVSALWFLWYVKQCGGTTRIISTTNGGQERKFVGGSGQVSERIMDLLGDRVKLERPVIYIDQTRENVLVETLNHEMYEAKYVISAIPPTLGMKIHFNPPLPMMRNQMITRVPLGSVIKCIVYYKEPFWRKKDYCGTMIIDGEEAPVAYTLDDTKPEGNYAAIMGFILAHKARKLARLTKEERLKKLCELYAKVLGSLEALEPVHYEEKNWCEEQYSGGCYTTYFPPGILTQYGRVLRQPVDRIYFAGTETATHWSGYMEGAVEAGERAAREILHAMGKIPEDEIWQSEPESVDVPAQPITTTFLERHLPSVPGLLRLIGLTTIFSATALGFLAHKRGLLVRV

[1] = ABTS radical cation scavenging assay; conditions: read-out: IC50 (μM) ± SEM ABTS
[2] = DPPH radical scavenging assay; conditions: read-out: IC50 (μM) ± SEM DPPH
[3] = Ferric ion reducing antioxidant power; conditions: μM equivalent to the standard antioxidant ascorbic acid
human MAO-A = molecular target: T2, human MAO-A (Homo sapiens, UniProt P21397); assay: MAO-A inhibition assay; assay type: biochemical
T2 sequence (P21397 1-527): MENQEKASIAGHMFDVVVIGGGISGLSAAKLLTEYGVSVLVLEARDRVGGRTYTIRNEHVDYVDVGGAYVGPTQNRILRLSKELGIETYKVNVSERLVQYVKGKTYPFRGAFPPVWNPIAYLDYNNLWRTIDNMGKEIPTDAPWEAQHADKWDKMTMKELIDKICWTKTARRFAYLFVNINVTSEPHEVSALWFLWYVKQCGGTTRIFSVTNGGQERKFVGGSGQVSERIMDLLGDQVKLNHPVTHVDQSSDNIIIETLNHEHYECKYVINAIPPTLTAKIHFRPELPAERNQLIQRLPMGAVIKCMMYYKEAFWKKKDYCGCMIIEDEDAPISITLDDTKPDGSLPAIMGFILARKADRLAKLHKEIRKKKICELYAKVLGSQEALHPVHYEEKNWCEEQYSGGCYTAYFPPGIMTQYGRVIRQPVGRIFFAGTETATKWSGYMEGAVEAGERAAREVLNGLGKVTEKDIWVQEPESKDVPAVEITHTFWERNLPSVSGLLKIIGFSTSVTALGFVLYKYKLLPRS

HEK-293 cells = assay: Cell viability assay on normal human embryonic HEK-293 cells; assay type: cell-based; conditions: 1, 10, 20, 40 and 100 μM, MTT
[4] = In vivo antioxidant potential in mice; conditions: 5 mg kg^−1, SOD, CAT, GSH
Aβ1–42 peptide = Aβ1–42 peptide (Homo sapiens, UniProt P05067); assay: ThT fluorescence assay for self-mediated Aβ1–42 aggregation; assay type: biochemical; conditions: for inhibition of amyloid beta fibrils: after a 24-hour equimolar administration, ThT fluorescence (Fig. 4)
COX-2 = molecular target: T3, COX-2 (Homo sapiens, UniProt P35354); assay: biochemical
T3 sequence (P35354 18-604): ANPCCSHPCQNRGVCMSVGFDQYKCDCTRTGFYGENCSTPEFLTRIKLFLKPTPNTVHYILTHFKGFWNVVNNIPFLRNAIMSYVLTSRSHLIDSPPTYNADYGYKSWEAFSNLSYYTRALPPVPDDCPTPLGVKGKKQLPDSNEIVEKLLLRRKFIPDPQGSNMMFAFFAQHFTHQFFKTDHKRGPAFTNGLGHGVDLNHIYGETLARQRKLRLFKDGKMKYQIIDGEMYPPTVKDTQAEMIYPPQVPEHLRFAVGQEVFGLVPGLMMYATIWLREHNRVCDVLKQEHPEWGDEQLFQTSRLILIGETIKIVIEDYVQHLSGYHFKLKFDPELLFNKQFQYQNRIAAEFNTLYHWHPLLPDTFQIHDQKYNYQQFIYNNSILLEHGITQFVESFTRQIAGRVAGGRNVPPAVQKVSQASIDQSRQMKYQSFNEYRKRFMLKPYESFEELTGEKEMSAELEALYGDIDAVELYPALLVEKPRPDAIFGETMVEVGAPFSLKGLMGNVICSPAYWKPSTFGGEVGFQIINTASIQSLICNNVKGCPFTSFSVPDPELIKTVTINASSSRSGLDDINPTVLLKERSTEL

eqBChE = eqBChE (Equus caballus, UniProt P81908); assay: biochemical
CAT = assay: In vivo CAT activity in brain of mice; conditions: high-test dose
SOD = assay: In vivo SOD level in brain of mice; conditions: 5 mg kg^−1
GSH-Px = assay: In vivo GSH-Px activity in brain of mice; conditions: 5 mg kg^−1
MDA = assay: In vivo MDA level in brain of mice; conditions: 5 mg kg^−1

Sequence of Aβ1–42 peptide (P05067 672-713): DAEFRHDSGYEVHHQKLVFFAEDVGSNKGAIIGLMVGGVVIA
Sequence of eqBChE (P81908 whole entry): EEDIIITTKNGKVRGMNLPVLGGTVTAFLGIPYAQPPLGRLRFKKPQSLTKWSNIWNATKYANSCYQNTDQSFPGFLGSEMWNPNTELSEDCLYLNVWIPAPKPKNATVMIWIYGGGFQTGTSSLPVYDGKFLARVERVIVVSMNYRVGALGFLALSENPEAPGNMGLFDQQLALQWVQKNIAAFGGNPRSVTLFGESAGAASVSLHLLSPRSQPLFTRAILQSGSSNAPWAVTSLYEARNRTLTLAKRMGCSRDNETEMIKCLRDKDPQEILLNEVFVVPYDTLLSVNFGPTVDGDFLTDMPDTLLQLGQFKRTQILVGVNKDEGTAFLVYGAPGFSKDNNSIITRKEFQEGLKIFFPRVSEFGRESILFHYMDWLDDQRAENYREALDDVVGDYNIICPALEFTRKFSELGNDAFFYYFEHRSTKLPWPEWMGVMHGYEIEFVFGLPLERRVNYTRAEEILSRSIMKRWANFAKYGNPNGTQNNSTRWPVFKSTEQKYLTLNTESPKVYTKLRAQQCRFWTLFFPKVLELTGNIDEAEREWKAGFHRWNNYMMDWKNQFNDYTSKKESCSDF
Sequence of eeAChE (O42275 24-633): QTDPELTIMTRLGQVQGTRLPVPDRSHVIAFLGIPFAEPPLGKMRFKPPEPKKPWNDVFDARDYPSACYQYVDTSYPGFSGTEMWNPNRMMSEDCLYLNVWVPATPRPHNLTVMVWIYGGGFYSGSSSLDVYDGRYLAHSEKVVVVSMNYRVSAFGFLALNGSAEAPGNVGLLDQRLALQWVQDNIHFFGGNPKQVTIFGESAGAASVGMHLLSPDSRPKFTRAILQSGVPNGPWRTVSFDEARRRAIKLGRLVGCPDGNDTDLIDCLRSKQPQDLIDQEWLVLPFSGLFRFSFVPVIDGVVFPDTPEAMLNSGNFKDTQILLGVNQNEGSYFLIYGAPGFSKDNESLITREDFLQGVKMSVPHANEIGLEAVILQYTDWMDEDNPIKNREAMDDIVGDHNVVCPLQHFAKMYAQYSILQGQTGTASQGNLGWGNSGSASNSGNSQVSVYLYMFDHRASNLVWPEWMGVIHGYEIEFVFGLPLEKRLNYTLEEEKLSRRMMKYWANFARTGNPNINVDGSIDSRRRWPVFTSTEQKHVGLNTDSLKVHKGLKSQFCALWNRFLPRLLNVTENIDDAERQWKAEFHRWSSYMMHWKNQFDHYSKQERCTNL

Compound	neurotoxicity / cytotoxicity on SH-SY5Y cells (SH-SY5Y cells)	IC50 (eeAChE) [µM]	SI = IC50 of BChE/IC50 of AChE (eeAChE)	SI = IC50 of MAO-A/IC50 of MAO-B (human MAO-B)	IC50 [1] [µM]	IC50 [2] [µM]	FRAP value [3] [µM]	IC50 (human MAO-A) [µM]	cytotoxic effect on viability of HEK-293 cells (HEK-293 cells)	in vivo antioxidant activity [4]	IC50 (Aβ1–42 peptide) [µM]	inhibition of amyloid beta fibrils (Aβ1–42 peptide)	IC50 (COX-2) [µM]	IC50 (eqBChE) [µM]	IC50 (human MAO-B) [µM]	CAT activity (CAT) [U mL^−1]	brain's SOD level (SOD) [U mL^−1]	brain GSH-Px activity (GSH-Px)	MDA concentration in animal brains (MDA) [nmol/mL]	protective ability on SH-SY5Y (SH-SY5Y cells; at all concentrations (10–100 μM))
C#CCN[C@@H]1CCc2ccccc21 [rasigiline, rasagiline, reference compound]	no cytotoxicity	–	–	–	–	–	–	–	–	–	–	–	–	–	–	–	–	–	–	–
O=C(/C=C/c1ccc(-c2ccccc2)cc1)Nc1nc2ccc(O)cc2s1 [Compound 23, (E)-3-([1,1′-Biphenyl]-4-yl)-N-(6-hydroxybenzo[d]thiazol-2-yl)acryl-amide]	did not show any apparent neurotoxicity	0.071 ± 0.1	220	270	12.1 ± 0.14	18.19 ± 0.11	53.57	10 ± 0.5	not showed in cytotoxic effect	good to moderate in vivo antioxidant activity	23.1 ± 1.05	approximately 30%	14.4 ± 0.28	15.6 ± 0.901	–	–	–	–	–	–
O=C(O)c1cc(O)c(O)c(O)c1 [Gallic acid, reference compound]	–	–	–	–	35.2 ± 1.19	35.2 ± 1.04	–	–	–	–	–	–	–	–	–	–	–	–	–	–
COc1cc(/C=C/C(=O)Nc2ccc(S(N)(=O)=O)cc2)ccc1OCc1ccccc1 [Compound 25, (E)-3-(4-(Benzyloxy)-3-methoxyphenyl)-N-(4-sulfamoylphenyl)acrylamide]	did not show any apparent neurotoxicity	0.835 ± 0.1	17	426	20.7 ± 1.11	25 ± 1.16	20.07	28.2 ± 1.09	not showed in cytotoxic effect	–	14.1 ± 0.24	~50%	0.74 ± 0.13	14.1 ± 0.639	0.066 ± 0.004	–	–	–	–	–
COc1cc(/C=C/C(=O)NC(C)C(N)=O)ccc1O (stereo not drawn) [Compound 18, (E)-N-(1-Amino-1-oxopropan-2-yl)-3-(4-hydroxy-3-methoxyphenyl)acrylamide]	–	58.4 ± 0.09	–	–	45.1 ± 1.77	58.3 ± 1.21	29.84	–	–	–	–	–	–	–	10 ± 1.03	–	–	–	–	–
CC(NC(=O)/C=C/c1ccc(-c2ccccc2)cc1)C(N)=O (stereo not drawn) [Compound 20, (E)-3-([1,1′-Biphenyl]-4-yl)-N-(1-amino-1-oxopropan-2-yl)acryl-amide]	–	13.51 ± 0.1	6	19	77.1 ± 1.37	–	44.81	10 ± 0.925	–	–	–	–	–	84.1 ± 1.32	0.513 ± 0.07	–	–	–	–	–
COc1cc(/C=C/C(=O)Nc2nc3ccc(O)cc3s2)ccc1O [Compound 21, (E)-3-(4-Hydroxy-3-methoxyphenyl)-N-(6-hydroxybenzo[d]thiazol-2-yl)acrylamide]	–	29.84 ± 0.1	1	75	6.29 ± 0.09	14.44 ± 0.13	36.01	37.1 ± 1.03	–	–	–	–	–	43.1 ± 1.09	0.491 ± 0.024	–	–	–	–	–
O=C(Nc1nc2ccc(O)cc2s1)c1cc(O)c(O)c(O)c1 [Compound 28, 3,4,5-Trihydroxy-N-(6-hydroxybenzo[d]thiazol-2-yl)benzamide]	did not show any apparent neurotoxicity	1.48 ± 0.1	6	46	2.06 ± 0.11	1.77 ± 0.04	45.24	10.1 ± 0.239	not showed in cytotoxic effect	good to moderate in vivo antioxidant activity	11.29 ± 0.08	around 60%	10.4 ± 0.13	9.25 ± 0.506	0.219 ± 0.34	97	94.20	increases the antioxidant enzymatic activity of GSH-Px	1.15	–
Cc1c(C)c2c(c(C)c1O)CCC(C)(C(=O)O)O2 (stereo not drawn) [trolox, reference compound]	no cytotoxicity	–	–	–	–	–	–	–	–	significant antioxidant potential	–	–	–	–	–	–	–	–	–	–
COc1cc(/C=C/C(=O)Nc2ccc(S(N)(=O)=O)cc2)ccc1O [Compound 24, (E)-3-(4-Hydroxy-3-methoxyphenyl)-N-(4-sulfamoylphenyl)acryl-amide]	–	10.74 ± 0.1	5	539	48.8 ± 1.2	21.21 ± 0.15	14.75	76.6 ± 1.22	–	–	–	–	–	58.2 ± 1.41	0.142 ± 0.011	–	–	–	–	–
NS(=O)(=O)c1ccc(NC(=O)c2cc(O)c(O)c(O)c2)cc1 [Compound 29, 3,4,5-Trihydroxy-N-(4-sulfamoylphenyl)benzamide]	did not show any apparent neurotoxicity	3.64 ± 0.1	9	54	23.5 ± 1.04	10.8 ± 0.63	–	21.4 ± 0.316	–	not determined to be active	–	–	–	34 ± 1.18	0.395 ± 0.34	–	–	–	–	–
CC(NC(=O)c1cc(O)c(O)c(O)c1)C(N)=O (stereo not drawn) [Compound 27, N-(1-Amino-1-oxopropan-2-yl)-3,4,5-trihydroxybenzamide]	–	49.03 ± 0.1	–	–	20.4 ± 0.3	14.6 ± 0.52	–	–	–	–	–	–	–	–	30.2 ± 1.18	–	–	–	–	40–50%
O=C1O[C@H]([C@@H](O)CO)C(O)=C1O [Ascorbic acid, reference compound]	–	–	–	–	6.08 ± 0.21	4.89 ± 0.09	90.89	–	–	–	–	–	–	–	–	–	–	–	–	–
COc1cc(/C=C/C(=O)O)ccc1O [Ferulic acid, trans-4-hydroxy-3-methoxycinnamic acid, reference compound]	–	–	–	–	–	69.8 ± 1.48	–	–	–	–	–	–	–	–	–	–	–	–	–	–
COc1cc(/C=C/C(=O)CC(=O)/C=C/c2ccc(O)c(OC)c2)ccc1O [Curcumin, reference compound]	–	–	–	–	–	–	–	–	–	–	–	around 60%	–	–	–	–	–	–	–	–
NS(=O)(=O)c1ccc(NC(=O)/C=C/c2ccc(-c3ccccc3)cc2)cc1 [Compound 26, (E)-3-([1,1′-Biphenyl]-4-yl)-N-(4-sulfamoylphenyl)acrylamide]	–	0.89 ± 0.1	1	60	40.6 ± 1.11	–	24.7	19.9 ± 1.17	not showed in cytotoxic effect	–	19.52 ± 0.18	–	2.19 ± 0.1	1.03 ± 0.031	0.327 ± 0.011	–	–	–	–	–
